Measurements: US20160122320A1, “USEFUL COMBINATIONS OF MONOBACTAM ANTIBIOTICS WITH BETA-LACTAMASE INHIBITORS” (Basilea Pharmaceutica AG, priority 2005, published 2016)

How the values were obtained:
Assay in all cases: MIC, NCCLS broth microdilution
Assay type in all cases: cell-based
Enterobacter cloacae MRW = system: Enterobacter cloacae MRW
Procedure: (§1) In all cases the final concentration of DMSO incubated with the bacteria is less than or equal to 1%. […] Plates were incubated overnight at an appropriate temperature (30° C. or 37° C.) and optical densities assessed by eye. The MIC value is defined as the lowest compound concentration completely inhibiting visible growth of the test organism. When combinations between compounds of formula I with compounds of formula II and are evaluated the compounds of formula I are tested in dilution series as described above while the compounds of formula II and III-XIII were present in all wells at a constant concentration of 4 μg/mL each.

[1] = system: Stenotrophomonas malthophilia 1AC736; conditions: for MIC of antibiotic: antibiotic alone, no inhibitor
Serratia marcescens S6 = system: Serratia marcescens S6
Procedure: (§2) Antimicrobial activity of the compounds and of their combinations was determined against a selection of organisms according to the standard procedures described by the National Committee for Clinical Laboratory Standards (National Committee for Clinical Laboratory. Standards (2000). Methods for Dilution Antimicrobial Susceptibility Tests for Bacteria That Grow Aerobically-Fifth Edition: Approved Standard M7-A5. NCCLS, Wayne, Pa., USA).
as §1

[2] = system: Enterobacter aerogenes Zayakosky; conditions: Enterobacter aerogenes Zayakosky
Procedure: as §2, §1

[3] = system: Klebsiella pneumoniae CF104
Enterobacter cloacae P99 = system: Enterobacter cloacae P99
Procedure: as §2, §1

[4] = system: Enterobacter cloacae M4018
Procedure: as §1

Acinetobacter sp. J2 = conditions: for MIC of antibiotic: antibiotic alone, no inhibitor
[5] = system: Pseudomonas aeruginosa MK1184
[6] = system: Enterobacter aerogenes B1
Procedure: as §2, §1

[7] = system: Pseudomonas aeruginosa 1973E
Method in brief: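 Broth microdilution following NCCLS M7-A5, with final DMSO ≤1%. Plates were incubated overnight at 30° C. or 37° C. and growth was read by eye; MIC is the lowest concentration giving complete inhibition of visible growth. In combination tests the formula I compound was serially diluted while partner compounds were held at 4 μg/mL each.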

[8] = system: Enterobacter cloacae ATCC13047/CRO-R
Procedure: as §2, §1

[9] = system: Enterobacter cloacae B1102
Procedure: as §2, §1

[10] = + compound 323 and clavulanate, 4 mg/L each
[11] = with clavulanate (clavulanic acid)

CC1C(NC(=O)C(=NOCc2cc(=O)c(O)cn2O)c2csc(N)n2)C(=O)N1S(=O)(=O)O (stereo not drawn) [Compound 1]
Minimal Inhibitory Concentration of antibiotic at fixed inhibitor concentration of 4 mg/L (Enterobacter cloacae MRW; + clavulanate 4 mg/L): 32 mg/L
Minimal Inhibitory Concentration of antibiotic at fixed inhibitor concentration of 4 mg/L (Enterobacter cloacae MRW; + compound 206 4 mg/L): 16 mg/L
Minimal Inhibitory Concentration of antibiotic at fixed inhibitor concentration of 4 mg/L (Enterobacter cloacae MRW; [10]): 4 mg/L
Minimal Inhibitory Concentration of antibiotic at fixed inhibitor concentration of 4 mg/L (Enterobacter cloacae MRW; + compound 501 4 mg/L): 32 mg/L
Minimal Inhibitory Concentration of antibiotic (Enterobacter cloacae MRW; antibiotic alone): >32 mg/L
MIC of antibiotic ([1]; Stenotrophomonas malthophilia 1AC736): 0.5 µg/mL
MIC of antibiotic ([1]; Stenotrophomonas maltophilia 1AC736): 1 µg/mL
MIC of antibiotic at fixed inhibitor concentration of 4 mg/L ([1]; Stenotrophomonas maltophilia 1AC736, with 102 and sulbactam): 2 µg/mL
MIC of antibiotic at fixed inhibitor concentration of 4 mg/L ([1]; Stenotrophomonas maltophilia 1AC736, with 111 and clavulanate): 0.125 µg/mL
MIC of antibiotic at fixed inhibitor concentration of 4 mg/L ([1]; Stenotrophomonas maltophilia 1AC736, with 202 and clavulanate): 0.125 µg/mL
MIC of antibiotic at fixed inhibitor concentration of 4 mg/L ([1]; Stenotrophomonas maltophilia 1AC736, with 206 and clavulanate): 0.125 µg/mL
MIC of antibiotic at fixed inhibitor concentration of 4 mg/L ([1]; Stenotrophomonas maltophilia 1AC736, with 323 and clavulanate): 0.125 µg/mL
MIC of antibiotic at fixed inhibitor concentration of 4 mg/L ([1]; Stenotrophomonas maltophilia 1AC736, with 323 and sulbactam): 0.125 µg/mL
MIC of antibiotic at fixed inhibitor concentration of 4 mg/L ([1]; Stenotrophomonas maltophilia 1AC736, with 324 and clavulanate): 0.125 µg/mL
MIC of antibiotic at fixed inhibitor concentration of 4 mg/L ([1]; Stenotrophomonas maltophilia 1AC736, with 501): 0.25 µg/mL
MIC of antibiotic at fixed inhibitor concentration of 4 mg/L ([1]; Stenotrophomonas maltophilia 1AC736, with clavulanate (clavulanic acid)): 0.5 µg/mL
MIC of antibiotic at fixed inhibitor concentration of 4 mg/L (Serratia marcescens S6; with 111 and clavulanate): 0.25 µg/mL
MIC of antibiotic at fixed inhibitor concentration of 4 mg/L (Serratia marcescens S6; with 202 and clavulanate): 0.5 µg/mL
MIC of antibiotic at fixed inhibitor concentration of 4 mg/L (Serratia marcescens S6; with 206 and clavulanate): 4 µg/mL
MIC of antibiotic at fixed inhibitor concentration of 4 mg/L (Serratia marcescens S6; with 323 and clavulanate): 0.25 µg/mL
MIC of antibiotic at fixed inhibitor concentration of 4 mg/L (Serratia marcescens S6; with 323 and sulbactam): 0.5 µg/mL
MIC of antibiotic at fixed inhibitor concentration of 4 mg/L (Serratia marcescens S6; with 324 and clavulanate): 1 µg/mL
MIC of antibiotic at fixed inhibitor concentration of 4 mg/L (Serratia marcescens S6; with 501): 4 µg/mL
MIC of antibiotic at fixed inhibitor concentration of 4 mg/L (Serratia marcescens S6; [11]): 4 µg/mL
Minimal Inhibitory Concentration of antibiotic at fixed inhibitor concentration of 4 mg/L ([2]; + clavulanate 4 mg/L): >32 mg/L
Minimal Inhibitory Concentration of antibiotic at fixed inhibitor concentration of 4 mg/L ([2]; + compound 206 4 mg/L): >32 mg/L
Minimal Inhibitory Concentration of antibiotic at fixed inhibitor concentration of 4 mg/L [2, 10]: 16 mg/L
Minimal Inhibitory Concentration of antibiotic at fixed inhibitor concentration of 4 mg/L ([2]; + compound 501 4 mg/L): >32 mg/L
Minimal Inhibitory Concentration of antibiotic ([2]; antibiotic alone): >32 mg/L
MIC of antibiotic ([3]; antibiotic alone, no inhibitor): >32 µg/mL
MIC of antibiotic at fixed inhibitor concentration of 4 mg/L ([3]; with 102 and clavulanate): 1 µg/mL
MIC of antibiotic at fixed inhibitor concentration of 4 mg/L ([3]; with 111 and clavulanate): <0.06 µg/mL
MIC of antibiotic at fixed inhibitor concentration of 4 mg/L ([3]; with 202 and clavulanate): 2 µg/mL
MIC of antibiotic at fixed inhibitor concentration of 4 mg/L ([3]; with 206 and clavulanate): 0.25 µg/mL
MIC of antibiotic at fixed inhibitor concentration of 4 mg/L ([3]; with 323 and clavulanate): 2 µg/mL
MIC of antibiotic at fixed inhibitor concentration of 4 mg/L ([3]; with 323 and sulbactam): 1 µg/mL
MIC of antibiotic at fixed inhibitor concentration of 4 mg/L ([3]; with 324 and clavulanate): 1 µg/mL
MIC of antibiotic at fixed inhibitor concentration of 4 mg/L ([3]; with 501): 0.5 µg/mL
MIC of antibiotic at fixed inhibitor concentration of 4 mg/L [3, 11]: 0.5 µg/mL
MIC of antibiotic (Enterobacter cloacae P99; antibiotic alone, no inhibitor): >32 µg/mL
MIC of antibiotic at fixed inhibitor concentration of 4 mg/L (Enterobacter cloacae P99; with 102 and clavulanate): 4 µg/mL
MIC of antibiotic at fixed inhibitor concentration of 4 mg/L (Enterobacter cloacae P99; with 111 and clavulanate): 4 µg/mL
MIC of antibiotic at fixed inhibitor concentration of 4 mg/L (Enterobacter cloacae P99; with 202 and clavulanate): 16 µg/mL
MIC of antibiotic at fixed inhibitor concentration of 4 mg/L (Enterobacter cloacae P99; with 206 and clavulanate): 8 µg/mL
MIC of antibiotic at fixed inhibitor concentration of 4 mg/L (Enterobacter cloacae P99; with 323 and clavulanate): 4 µg/mL
MIC of antibiotic at fixed inhibitor concentration of 4 mg/L (Enterobacter cloacae P99; with 323 and sulbactam): 4 µg/mL
MIC of antibiotic at fixed inhibitor concentration of 4 mg/L (Enterobacter cloacae P99; with 324 and clavulanate): 4 µg/mL
MIC of antibiotic at fixed inhibitor concentration of 4 mg/L (Enterobacter cloacae P99; with 501): 16 µg/mL
MIC of antibiotic at fixed inhibitor concentration of 4 mg/L (Enterobacter cloacae P99; [11]): 32 µg/mL
Minimal Inhibitory Concentration of antibiotic at fixed inhibitor concentration of 4 mg/L ([4]; + clavulanate 4 mg/L): >32 mg/L
Minimal Inhibitory Concentration of antibiotic at fixed inhibitor concentration of 4 mg/L ([4]; + compound 206 4 mg/L): 8 mg/L
Minimal Inhibitory Concentration of antibiotic at fixed inhibitor concentration of 4 mg/L [4, 10]: 2 mg/L
Minimal Inhibitory Concentration of antibiotic at fixed inhibitor concentration of 4 mg/L ([4]; + compound 501 4 mg/L): 16 mg/L
Minimal Inhibitory Concentration of antibiotic ([4]; antibiotic alone): 32 mg/L
MIC of antibiotic (Acinetobacter sp. J2; Acinetobacter baumannii J2): >32 µg/mL
MIC of antibiotic at fixed inhibitor concentration of 4 mg/L (Acinetobacter sp. J2; Acinetobacter baumannii J2, with 111 and clavulanate): 4 µg/mL
MIC of antibiotic at fixed inhibitor concentration of 4 mg/L (Acinetobacter sp. J2; Acinetobacter baumannii J2, with 202 and clavulanate): 4 µg/mL
MIC of antibiotic at fixed inhibitor concentration of 4 mg/L (Acinetobacter sp. J2; Acinetobacter baumannii J2, with 206 and clavulanate): 4 µg/mL
MIC of antibiotic at fixed inhibitor concentration of 4 mg/L (Acinetobacter sp. J2; Acinetobacter baumannii J2, with 323 and clavulanate): 16 µg/mL
MIC of antibiotic at fixed inhibitor concentration of 4 mg/L (Acinetobacter sp. J2; Acinetobacter baumannii J2, with 323 and sulbactam): 1 µg/mL
MIC of antibiotic at fixed inhibitor concentration of 4 mg/L (Acinetobacter sp. J2; Acinetobacter baumannii J2, with 324 and clavulanate): 32 µg/mL
MIC of antibiotic at fixed inhibitor concentration of 4 mg/L (Acinetobacter sp. J2; Acinetobacter baumannii J2, with 501): <0.06 µg/mL
MIC of antibiotic at fixed inhibitor concentration of 4 mg/L (Acinetobacter sp. J2; Acinetobacter baumannii J2, with clavulanate (clavulanic acid)): >32 µg/mL
MIC of antibiotic (Acinetobacter sp. J2; Acinetobacter sp. J2): >32 µg/mL
MIC of antibiotic ([5]; antibiotic alone, no inhibitor): >32 µg/mL
MIC of antibiotic at fixed inhibitor concentration of 4 mg/L ([5]; with 102 and clavulanate): 4 µg/mL
MIC of antibiotic at fixed inhibitor concentration of 4 mg/L ([5]; with 103 and clavulanate): 8 µg/mL
MIC of antibiotic at fixed inhibitor concentration of 4 mg/L ([5]; with 111 and clavulanate): 8 µg/mL
MIC of antibiotic at fixed inhibitor concentration of 4 mg/L ([5]; with 202 and clavulanate): 8 µg/mL
MIC of antibiotic at fixed inhibitor concentration of 4 mg/L ([5]; with 206 and clavulanate): >32 µg/mL
MIC of antibiotic at fixed inhibitor concentration of 4 mg/L ([5]; with 323 and clavulanate): 16 µg/mL
MIC of antibiotic at fixed inhibitor concentration of 4 mg/L ([5]; with 323 and sulbactam): 4 µg/mL
MIC of antibiotic at fixed inhibitor concentration of 4 mg/L ([5]; with 501): >32 µg/mL
MIC of antibiotic at fixed inhibitor concentration of 4 mg/L [5, 11]: >32 µg/mL
Minimal Inhibitory Concentration of antibiotic at fixed inhibitor concentration of 4 mg/L ([6]; + clavulanate 4 mg/L): >32 mg/L
Minimal Inhibitory Concentration of antibiotic at fixed inhibitor concentration of 4 mg/L ([6]; + compound 206 4 mg/L): 16 mg/L
Minimal Inhibitory Concentration of antibiotic at fixed inhibitor concentration of 4 mg/L [6, 10]: 4 mg/L
Minimal Inhibitory Concentration of antibiotic at fixed inhibitor concentration of 4 mg/L ([6]; + compound 501 4 mg/L): >32 mg/L
Minimal Inhibitory Concentration of antibiotic ([6]; antibiotic alone): 32 mg/L
MIC of antibiotic ([7]; antibiotic alone, no inhibitor): 16 µg/mL
MIC of antibiotic at fixed inhibitor concentration of 4 mg/L ([7]; with 102 and clavulanate): 2 µg/mL
MIC of antibiotic at fixed inhibitor concentration of 4 mg/L ([7]; with 111 and clavulanate): 4 µg/mL
MIC of antibiotic at fixed inhibitor concentration of 4 mg/L ([7]; with 202 and clavulanate): 4 µg/mL
MIC of antibiotic at fixed inhibitor concentration of 4 mg/L ([7]; with 206 and clavulanate): 4 µg/mL
MIC of antibiotic at fixed inhibitor concentration of 4 mg/L ([7]; with 323 and clavulanate): 8 µg/mL
MIC of antibiotic at fixed inhibitor concentration of 4 mg/L ([7]; with 323 and sulbactam): 4 µg/mL
MIC of antibiotic at fixed inhibitor concentration of 4 mg/L ([7]; with 324 and clavulanate): 8 µg/mL
MIC of antibiotic at fixed inhibitor concentration of 4 mg/L ([7]; with 501): 8 µg/mL
MIC of antibiotic at fixed inhibitor concentration of 4 mg/L [7, 11]: 8 µg/mL
Minimal Inhibitory Concentration of antibiotic at fixed inhibitor concentration of 4 mg/L ([8]; + clavulanate 4 mg/L): >32 mg/L
Minimal Inhibitory Concentration of antibiotic at fixed inhibitor concentration of 4 mg/L ([8]; + compound 206 4 mg/L): >32 mg/L
Minimal Inhibitory Concentration of antibiotic at fixed inhibitor concentration of 4 mg/L [8, 10]: 8 mg/L
Minimal Inhibitory Concentration of antibiotic at fixed inhibitor concentration of 4 mg/L ([8]; + compound 501 4 mg/L): >32 mg/L
Minimal Inhibitory Concentration of antibiotic ([8]; antibiotic alone): >32 mg/L
Minimal Inhibitory Concentration of antibiotic at fixed inhibitor concentration of 4 mg/L ([9]; + clavulanate 4 mg/L): 32 mg/L
Minimal Inhibitory Concentration of antibiotic at fixed inhibitor concentration of 4 mg/L ([9]; + compound 206 4 mg/L): 16 mg/L
Minimal Inhibitory Concentration of antibiotic at fixed inhibitor concentration of 4 mg/L [9, 10]: 8 mg/L
Minimal Inhibitory Concentration of antibiotic at fixed inhibitor concentration of 4 mg/L ([9]; + compound 501 4 mg/L): 16 mg/L
Minimal Inhibitory Concentration of antibiotic ([9]; antibiotic alone): >32 mg/L
